How the values were obtained:
[1] = test system: bovine RBCs / B. divergens; test: Growth of B. divergens with CRY-treated bovine RBCs; assay type: cell-based, Babesia divergens; settings: bovine RBCs pre-incubated with 1 and 10 μM CRY for 3 and 6 h, 4 days
Protocol: (§1) To investigate the hemolytic effect of CRY on host (bovine or equine) RBCs, bovine and equine RBCs were incubated with 1 and 10 μM of CRY for 3 and 6 h. The RBCs were washed thrice with phosphate-buffered saline (PBS) and mixed with B. divergens and B. caballi infected RBCs (iRBCs, recovered from −80 °C stock at our laboratory) harvested with a parasitemia of 8% and 3%, respectively and adjusted to 1% parasitemia with fresh RBCs. In a 24-well plate, 100 μl of iRBCs was added to 900 μl of complete medium and the parasite growth was monitored daily by microscopic examination of a Giemsa-stained blood smear for 4 days.

[2] = test system: B. caballi; test: Growth inhibitory fluorescence assay in vitro, B. caballi; assay type: cell-based, Babesia caballi; settings: for Selective index HFF: EC50 HFF / IC50 B. caballi; for Selective index MDBK: EC50 MDBK / IC50 B. caballi; for Selective index NIH/3T3: EC50 NIH/3T3 / IC50 B. caballi
Protocol: (§2) Texas strain of B. bovis and Argentina strain of B. bigemina were grown using bovine red blood cells (RBCs, collected from cattle farm of Obihiro University of Agriculture and Veterinary Medicine and stored at 4°C) in medium 199 (M199; Sigma-Aldrich, Tokyo, Japan) supplemented with 40% bovine serum, while RPMI 1640 medium (Sigma-Aldrich, Tokyo, Japan) was used for B. divergens (German strain) cultivation. The United States Department of Agriculture (USDA) strain of T. equi was grown in equine RBCs (collected from horse farm of Obihiro University of Agriculture and Veterinary Medicine and stored at 4°C) in M199 supplemented with 40% equine serum, and hypoxanthine (MP Biomedicals, Santa Ana, CA, USA) at a final concentration of 13.6 μg/ml was used as a vital supplement, while GIT medium was used for B. caballi (USDA strain) cultivation. Sixty μg/ml of streptomycin, 0.15 μg/ml of amphotericin B, and 60 U/ml of penicillin G (Sigma-Aldrich, Tokyo, Japan) were added to all media to prevent fungal and bacterial contamination. All parasite cultures were maintained for a long time in a microaerophilic stationary-phase culture system.
(§3) The inhibition assay was conducted according to the previously described protocol. Briefly, different concentrations of CRY, DA, CF, and AQ were added in triplicate in 96-well plates with 1% parasitemia and 2.5% HCT for B. bovis and B. bigemina and 5% HCT for B. divergens, B. caballi, and T. equi. The plates were incubated in a humidified incubator with 5% CO2, 5% O2, and 90% N2 for 96 h without changing the media. After 96 h, 100 μl of lysis buffer containing 2 × SG1 was directly added to each well and the plates were then wrapped in aluminum foil for protection from direct light and incubated for 6 h at room temperature. Afterward, the fluorescence was measured using a fluorescence spectrophotometer (Fluoroskan Ascent, Thermo Fisher Scientific, USA) at 485 nm excitation and 518 nm emission wavelengths. The relative fluorescence value was set to percentages after subtracting the mean values of the negative control. The experiment was repeated thrice.
(§4) The IC50 values of CRY, DA, CF, and AQ were determined using the nonlinear regression curve fit in GraphPad Prism (GraphPad Software Inc., San Diego, CA, USA). Combination index (CI) values for the drug combination were calculated using CompuSyn software, and the degree of synergism was determined as the weighted average of CI values using a formula [(1 x IC50) + (2 x IC75) + (3 x IC90) + (4 x IC95)]/10 [30]. The differences in parasitemia and hematology profiles in the B. microti–infected mice were analyzed using an independent Student’s t-test and one-way ANOVA test using GraphPad Prism version 5.0 for Windows (GraphPad Software Inc., San Diego, CA, USA). A P-value < 0.05 was considered statistically significant.

[3] = test system: mouse embryonic fibroblast (NIH/3T3) cell line; test: cells; assay type: cell-based; settings: for EC50: Mus musculus, NIH3T3, cell viability, NIH/3T3, 24 h, CCK-8
Protocol: (§5) Madin–Darby bovine kidney (MDBK) (ECACC), mouse embryonic fibroblast (NIH/3T3 ATCC CRL-1658) and Human foreskin fibroblast (HFF HFF-1 ATCC SCRC-1041) cell lines were recovered from -80°C stock and cultured continuously in our laboratory at 37°C in a humidified incubator with 5% CO2. In 75 cm^2 culture flasks, NIH/3T3 and HFF cell lines were maintained with Dulbecco’s Modified Eagle’s Medium (DMEM; Gibco, Grand Island, NY, USA), while the MDBK cell line was maintained with Minimum Essential Medium Eagle (MEM; Gibco). Ten percent fetal bovine serum, 1% glutamine, and 0.5% penicillin/streptomycin (Gibco) were added to all media and the cells were stained with 4, 6-diamidino-2-phenylindole dihydrochloride (DAPI; Sigma-Aldrich, St. Louis, MO, USA) to ensure that they were free from mycoplasma contamination. Afterward, the cells were washing twice with Dulbecco’s phosphate-buffered saline and TrypLE Express (Gibco) was used for cell detachment from the culture flask. Finally, Neubauer improved C-Chip (NanoEntek Inc., Seoul, Korea) was used for counting the viable cells after staining with 0.4% trypan blue solution.
(§6) The cytotoxicity assay was performed in accordance with the previously described protocol. Briefly, the assay was carried out using 96-well plates at 37 °C in a humidified incubator with 5% CO2, 100 μl of cells at a density of 5 x 10^4 cells/ml was seeded per well and allowed to attach to the plate for 24 h. Ten microliters of twofold drug dilutions was added to each well to a final concentration of 0.781 to 100 μM in triplicate and incubated for another 24 h. Ten μl of Cell Counting Kits-8 (CCK-8; Dojindo, Japan) was added to each well and incubated for another 3 h, and the absorbance was measured at 450 nm using a microplate reader.

[4] = test system: human foreskin fibroblast (HFF) cell line; test: cells; assay type: cell-based; settings: for EC50: Homo sapiens, cell viability, HFF, 24 h, CCK-8
Protocol: as §5, §6

[5] = test system: Madin–Darby bovine kidney (MDBK) cell line; test: cells; assay type: cell-based; settings: for EC50: Bos taurus, MDBK, 24 h, cell viability, CCK-8
Protocol: as §5, §6

[6] = test system: P. berghei; set-up: method as in PMID 11543688; settings: no apparent toxicity; cited from earlier work
[7] = test system: B. bigemina; test: Growth inhibitory fluorescence assay in vitro, B. bigemina; assay type: cell-based, Babesia bigemina; settings: for Selective index HFF: EC50 HFF / IC50 B. bigemina; for Selective index MDBK: EC50 MDBK / IC50 B. bigemina; for Selective index NIH/3T3: EC50 NIH/3T3 / IC50 B. bigemina
Protocol: as §2, §3, §4

[8] = test system: equine RBCs / B. caballi; test: Growth of B. caballi with CRY-treated horse RBCs; assay type: cell-based, Babesia caballi; settings: equine RBCs pre-incubated with 1 and 10 μM CRY for 3 and 6 h, 4 days
Protocol: as §1

| SMILES | multiplication of B. divergens, CRY-treated RBCs versus normal RBCs [1] | concentration at which in vitro growth was significantly inhibited ([2]; B. caballi, t-test P = 0.001) [µM] | IC50 ([2]; Babesia caballi, B. caballi in vitro culture, fluorescence assay, 96 h) [µM] | Selective index HFF [2] | Selective index MDBK [2] | Selective index NIH/3T3 [2] | EC50 [3] [µM] | inhibition of cell line at 100 μM [4] | EC50 [4] [µM] | EC50 [5] [µM] | suppression of P. berghei parasitemia in mice [6] [%] | concentration at which in vitro growth was significantly inhibited ([7]; B. bigemina, t-test P = 0.005) [µM] | IC50 ([7]; Babesia bigemina, B. bigemina in vitro culture, fluorescence assay, 96 h) [µM] | Selective index HFF [7] | Selective index MDBK [7] | Selective index NIH/3T3 [7] | multiplication of B. caballi, CRY-treated RBCs versus normal RBCs [8] | inhibition of cell line at 100 μM [3] | inhibition of cell line at 100 μM [5] |
| --- | --- | --- | --- | --- | --- | --- | --- | --- | --- | --- | --- | --- | --- | --- | --- | --- | --- | --- | --- |
| Cn1c2c3ccccc3nc-2cc2ccccc21 [CRY, Cryptolepine hydrate] | did not significantly differ | 0.03 | 0.6 ± 0.00053 | ˃ 166.7 | 144.45 | 158.82 | 95.3 ± 2.7 | did not show any inhibition | > 100 | 86.7 ± 4.43 | 80.5 | 0.15 | 1.4 ± 0.0006 | ˃ 71.4 | 61.91 | 68.07 | did not significantly differ | – | – |
| O=C1C(O)=C([C@H]2CC[C@H](c3ccc(Cl)cc3)CC2)C(=O)c2ccccc21 [AQ, atovaquone] | – | – | – | ˃ 980.4 | ˃ 980.4 | ˃ 980.4 | > 100 | did not show any inhibition | > 100 | > 100 | – | – | – | ˃ 142.7 | ˃ 142.7 | ˃ 142.7 | – | did not show any inhibition | did not show any inhibition |
